# Data published in patent publication US20070020193A1, “Dronabinol compositions and methods for using same” (priority 2005, published 2007).
# Marks after values point to notes of the source that are not given here.
# Experiments:
# healthy subjects [1] = assay: Example 1: conjunctiva congestion rating; assay type: in vivo, human
# Text: Conjunctiva Congestion was rated by a trained observer on a scale of 0-3 based on the blood vessels present as follows:
# 0—None (The white of the eye was not affected)
# 3—Considerable (The compete white of the eye is red caused by a pattern of bigger vessels. This is associated with complaints.)
# Absolute values of heart rate and conjunctive congestion scores were used to calculate changes from baseline.
# healthy subjects [2] = assay: Example 1: subjective drug ratings and ARCI; assay type: in vivo, human
# Text: The subject responded to each of three questions on a scale of 0 to 100 with 0 meaning no effect/not at all and 100 meaning maximum/very much:
# How much of a drug effect or high do you feel?
# How much do you like the drug?
# How much do you dislike the drug?
# The ARCI is a true/false questionnaire developed to specifically measure the subjective effects of drugs which have diverse pharmacological actions. The […] (PCAG), morphine-benzedrine, and lysergic acid diethylamide subgroup scales were used to assess sedation, euphoria, and dysphoria. Questions from the marijuana subscale were also included.
# Subjective drug ratings and cognitive measurement scores were presented as absolute values only with separate tables summarizing gender difference and age differences.
# [3] = Example 2 multiple rising dose inhaled delta-9-THC study: plasma pharmacokinetics; conditions: for AUC(0-t) / AUC(0-inf) / Cmax / half-life / Tmax: human, plasma; for AUC(0-t): AUC(0-8)
# Method: A randomized, double-blind, placebo-controlled, multiple rising dose safety, tolerability, pharmacokinetic and pharmacodynamic study to assess two dose levels of inhaled delta-9-THC was conducted. Dose levels were studied in ascending order. Two consecutive groups (n=9/group) of healthy subjects were studied (Groups I and II). […] There was a lapse of at least 10 days between the groups for interim safety and pharmacokinetic analysis. Two dose levels were studied in ascending order. […] Subjects in each treatment Group (I or II) received single and multiple doses of inhaled delta-9-THC according to the following schedule:
# For both dose levels, the first and the last dose of study drug was given under fasted conditions. Subjects were confined to the study site from the evening of Day −2 (Day 1 is the day of administration of the first dose of study drug) until the 120-hour blood sample following the final dose of study drug, resulting in an 18-day confinement period for subjects in Group I and a 25-day confinement period for Group II. Between the completion of Group I and the start of Group II, an interim safety and pharmacokinetic analysis was performed. Based on the results of the interim analyses, the dose level for investigation in Group II was determined.
# Two MDI dosage strengths were used corresponding to the same formulations used in Example 1: one delivering 0.3 mg delta-9-THC (or placebo) per actuation and one delivering 1.2 mg delta-9-THC (or placebo) per actuation. The MDI consisted of a pressurized (via propellants) container and a metered-dose valve. The propellants provided the necessary force to expel the drug, and also acted as a solvent and diluent. The canister unit was provided within a mouthpiece (oral adapter), to expel an exact amount of drug, in the proper particle size distribution, upon each actuation. Two basic formulations containing 0.3 and 1.2 mg of delta-9-THC per 50 μL were developed with propellant 1,1,1,2 tetrafluoroethane 134a (HFA 134a), and ethanol as solvent. The formulations were made in accordance with the composition used in Example 1.
# Whole blood samples were collected according to the assessment flowchart in EDTA tubes through venepuncture or indwelling catheter. Samples were immediately placed on ice and subsequently centrifuged within 30 minutes at 1,500 g for 10 minutes. Plasma was transferred into a 5 ml screw cap polypropylene tube, stoppered and stored at below minus 20° C. until transfer to the analytical laboratory for analysis. […] The measurement ranges were 0.05-30 ng/ml for delta-9-THC, 0.04-30 ng/ml for 11-OH-THC, and 0.25-10 ng/ml for THC-COOH.
# For Example 2: The statistical analysis encompassed an exploratory analysis of the single and multiple dose pharmacokinetics and dose proportionality of two dose levels of inhaled delta-9-THC in healthy subjects. Descriptive statistics included number of subjects, mean, standard deviation, coefficient of variation (%) and geometric mean for all pharmacokinetic parameters.
# The exploratory analysis was performed on the logarithms of the dose-normalized pharmacokinetic parameters AUC(0-inf), AUC(0-t), AUC(0-τ) and Cmax. Dose proportionality was tested both at single dose and at multiple dose (steady state) by comparing the dose groups for all pharmacokinetic parameters by an analysis of variance with dose as fixed effect.
# Dose proportionality was tested by the contrast between the dose groups. For this contrast on the logarithmic scale, p-values were given. After anti-logarithmic transformation, the resultant ratios of geometric means and 90% confidence intervals were given.
# Accumulation was tested by comparing the steady state values for AUC(0-τ) with the single dose values for AUC(0-τ) by a mixed model analysis of variance with dose and day (with levels single dose and steady state) as fixed effects and subject within dose as random effect.
# [4] = inhaled, 1.2 mg, Arithmetic Mean (SD), 1.2 mg m.d., Day 12, Group I
# [5] = inhaled, 1.2 mg, Arithmetic Mean (SD), 1.2 mg s.d., Day 1
# [6] = inhaled, 1.2 mg, Geometric Mean (Range), 1.2 mg s.d., Day 1
# [7] = inhaled, 3.6 mg, Arithmetic Mean (SD), 3.6 mg m.d., Day 19, Group II
# [8] = inhaled, 3.6 mg, Arithmetic Mean (SD), 3.6 mg s.d., Day 1
# [9] = inhaled, 3.6 mg, Geometric Mean (Range), 3.6 mg s.d., Day 1
compound,measurement,setting,value
"CCCCCc1cc(O)c2c(c1)OC(C)(C)[C@@H]1CCC(C)=C[C@@H]21 [delta-9-THC, delta-9-tetrahydrocannabinol]",number of occurrences of slight congestion,healthy subjects [1]; 9.6 mg dose group,3
same,conjunctiva congestion,healthy subjects [1]; 0.3 to 7.2 mg doses,no or substantially no conjunctiva congestion
same,occurrence of slight conjunctiva congestion,healthy subjects [1]; each of the 3.6 and 7.2 mg doses,once
same,dose with maximum 'disliking',healthy subjects [2]; Group I,2.4 mg
same,dose with maximum psychoactivity ('feel the drug' scores) and highest mean 'liking' scores,healthy subjects [2]; Group I,0.3 mg
same,dose with maximum 'disliking' scores and maximum 'feel the drug' scores,healthy subjects [2]; Group II,7.2 mg
same,dose with maximum 'liking' scores,healthy subjects [2]; Group II,3.6 mg
same,"subjective drug ratings, three scales","healthy subjects [2]; Group III, 3.6 mg",difference between placebo and 3.6 mg
same,"ARCI MBG, LSD and Amphetamine Scales",healthy subjects [2]; in vivo,No significant results
same,achievement of steady state,[3]; 1.2 mg delta-9-THC three times daily,apparently reached after six days of dosing
same,accumulation during multiple dosing,[3]; 8-hours dosing interval,no statistically significant accumulation
same,"Ratio AUC(0-8) m.d./AUC(0-8) s.d. (Accumulation factor), Mean","[3]; Group I, 1.2 mg",0.85
same,"Ratio AUC(0-8) m.d./AUC(0-inf) s.d. (Linearity), Mean","[3]; Group I, 1.2 mg",0.79
same,"Ratio AUC(0-8) m.d./AUC(0-8) s.d. (Accumulation factor), Mean","[3]; Group II, 3.6 mg",1.15
same,"Ratio AUC(0-8) m.d./AUC(0-inf) s.d. (Linearity), Mean","[3]; Group II, 3.6 mg",1.02
same,dose proportionality: geometric mean ratio (3.6 mg:1.2 mg) of dose-normalized AUC(0-8) (90% confidence interval),[3]; Multiple dose,1.10 (0.55-2.18)
same,dose proportionality: geometric mean ratio (3.6 mg:1.2 mg) of dose-normalized Cmax (90% confidence interval),[3]; Multiple dose,1.81 (0.52-6.24)
same,dose proportionality: geometric mean ratio (3.6 mg:1.2 mg) of dose-normalized AUC(0-8) (90% confidence interval),[3]; Single dose,0.77 (0.50-1.18)*
same,dose proportionality: geometric mean ratio (3.6 mg:1.2 mg) of dose-normalized AUC(0-inf) (90% confidence interval),[3]; Single dose,0.79 (0.51-1.23)
same,dose proportionality: geometric mean ratio (3.6 mg:1.2 mg) of dose-normalized AUC(0-t) (90% confidence interval),[3]; Single dose,0.81 (0.52-1.25)
same,dose proportionality: geometric mean ratio (3.6 mg:1.2 mg) of dose-normalized Cmax (90% confidence interval),[3]; Single dose,0.71 (0.38-1.37)
same,dose proportionality of pharmacokinetic parameters,[3]; after single or multiple dose administration,not found to deviate significantly
same,"plasma concentration-time curve, elimination profile",[3]; both dose levels,at least a bi-phasic elimination profile
same,systemic absorption,"[3]; both dose levels, inhaled",rapid systemic absorption
same,AUC(0-t),[3]; [4],5.74 ng·h/mL
same,AUC(0-t),[3]; [5],6.61 ng·h/mL
same,AUC(0-t),"[3]; inhaled, 1.2 mg, Geometric Mean (Range), 1.2 mg m.d., Day 12, Group I",4.52 ng·h/mL
same,AUC(0-t),[3]; [6],6.1 ng·h/mL
same,AUC(0-inf),[3]; [5],7.14 ng·h/mL
same,AUC(0-inf),[3]; [6],6.55 ng·h/mL
same,Cmax,[3]; [4],12.3 ng/mL
same,Cmax,"[3]; inhaled, 1.2 mg, Arithmetic Mean (SD), 1.2 mg s.d., Day 1, plasma",24 ng/mL
same,Cmax,"[3]; inhaled, 1.2 mg, Geometric Mean (Range), 1.2 mg m.d. (three times daily), Day 12, Group I",6.9 ng/mL
same,Cmax,"[3]; inhaled, 1.2 mg, Geometric Mean (Range), 1.2 mg s.d., Day 1, plasma",19.7 ng/mL
same,half-life,"[3]; inhaled, 1.2 mg, terminal elimination half-life, multiple dosing",24 h
same,Tmax,"[3]; inhaled, 1.2 mg, tmax, Arithmetic Mean (SD), 1.2 mg m.d., Day 12, Group I",3.6 min
same,Tmax,"[3]; inhaled, 1.2 mg, tmax, Arithmetic Mean (SD), 1.2 mg s.d., Day 1",2.4 min
same,Tmax,"[3]; inhaled, 1.2 mg, tmax, median (range), 1.2 mg m.d., Day 12, Group I",3.6 min
same,Tmax,"[3]; inhaled, 1.2 mg, tmax, median (range), 1.2 mg s.d., Day 1",1.8 min
same,half-life,"[3]; inhaled, 1.2 mg, t½, Arithmetic Mean (SD), 1.2 mg m.d., Day 12, Group I",29.1 h
same,half-life,"[3]; inhaled, 1.2 mg, t½, Arithmetic Mean (SD), 1.2 mg s.d., Day 1",4.02 h
same,half-life,"[3]; inhaled, 1.2 mg, t½, Geometric Mean (Range), 1.2 mg m.d., Day 12, Group I",25.3 h
same,half-life,"[3]; inhaled, 1.2 mg, t½, Geometric Mean (Range), 1.2 mg s.d., Day 1",3.39 h
same,AUC(0-t),[3]; [7],15.8 ng·h/mL
same,AUC(0-t),[3]; [8],14.7 ng·h/mL
same,AUC(0-t),"[3]; inhaled, 3.6 mg, Geometric Mean (Range), 3.6 mg m.d., Day 19, Group II",14.9 ng·h/mL
same,AUC(0-t),[3]; [9],14 ng·h/mL
same,AUC(0-inf),[3]; [8],16.3 ng·h/mL
same,AUC(0-inf),[3]; [9],15.6 ng·h/mL
same,Cmax,[3]; [7],40.4 ng/mL
same,Cmax,"[3]; inhaled, 3.6 mg, Arithmetic Mean (SD), 3.6 mg s.d., Day 1, plasma",44.7 ng/mL
same,Cmax,"[3]; inhaled, 3.6 mg, Geometric Mean (Range), 3.6 mg m.d. (three times daily), Day 19, Group II",37.4 ng/mL
same,Cmax,"[3]; inhaled, 3.6 mg, Geometric Mean (Range), 3.6 mg s.d., Day 1, plasma",42.5 ng/mL
same,half-life,"[3]; inhaled, 3.6 mg, Terminal elimination half-lives (summary estimate), summary, best estimated after multiple dosing",~93 h
same,half-life,"[3]; inhaled, 3.6 mg, terminal elimination half-life, multiple dosing",93 h
same,Tmax,"[3]; inhaled, 3.6 mg, tmax, Arithmetic Mean (SD), 3.6 mg m.d., Day 19, Group II",2.4 min
same,Tmax,"[3]; inhaled, 3.6 mg, tmax, Arithmetic Mean (SD), 3.6 mg s.d., Day 1",4.8 min
same,Tmax,"[3]; inhaled, 3.6 mg, tmax, median (range), 3.6 mg m.d., Day 19, Group II",1.8 min
same,Tmax,"[3]; inhaled, 3.6 mg, tmax, median (range), 3.6 mg s.d., Day 1",4.8 min
same,half-life,"[3]; inhaled, 3.6 mg, t½, Arithmetic Mean (SD), 3.6 mg m.d., Day 19, Group II",94.8 h
same,half-life,"[3]; inhaled, 3.6 mg, t½, Arithmetic Mean (SD), 3.6 mg s.d., Day 1",6.41 h
same,half-life,"[3]; inhaled, 3.6 mg, t½, Geometric Mean (Range), 3.6 mg m.d., Day 19, Group II",92.9 h
same,half-life,"[3]; inhaled, 3.6 mg, t½, Geometric Mean (Range), 3.6 mg s.d., Day 1",6.01 h
same,Tmax,"[3]; inhaled, Tmax range, both dose levels, after single and multiple dose administration",1.8 to 4.8 min
same,ratios of AUC(0-8) after multiple dosing versus AUC(0-inf) after single dose (linearity),[3]; in vivo,did not deviate clearly or significantly from unity
same,Cmax and AUC values versus dose,"[3]; single and multiple dose administration, 1.2 and 3.6 mg",Dose-related increases
